Literature values in patent US8883408B2, “Tissue implants for implantation and methods of preparing the same” (CryoLife, Inc., priority 2010, dated 2014).

System: sensitive bacteria
Conditions: literature review

NCC[C@H](O)C(=O)N[C@@H]1C[C@H](N)[C@@H](O[C@H]2O[C@H](CN)[C@@H](O)[C@H](O)[C@H]2O)[C@H](O)[C@H]1O[C@H]1O[C@H](CO)[C@@H](O)[C@H](N)[C@H]1O [amikacin]
minimum inhibitory concentration against sensitive bacteria (MIC) range: 0.125 to 32 µg/mL
